# Results: US20260130395A1, “Water Dispersible Botanical Compositions” (Aquila Black Limited, priority 2021, published 2026)
# Experiment: Stability of cannabinoid compounds and Vitamin E components in Beverage 2 (AB Red) by LCMSMS
# Format: physicochemical
# Experimental: The stability of the plant-derived cannabinoid compounds and Vitamin E components of the beverage stored 8° C. and at room temperature (21-25° C.) were monitored, over a period of 570 days via Liquid Chromatography-tandem Mass Spectrometry [LCMSMS, AGilent 6590, C18, 3×50 mm, 2.7 m (Agilent InfinityLab Poroshell 120 EC-C18), Electrospray Ionization detector]. The LCMSMS was calibrated for 0-50 ng/ml cannabinoids with the same resin material used in the preparation of the concentrates. At each time period, 100 ml of beverage was diluted with 10 ml of methanol and injected into the LCMSMS for analysis.
structure (smiles),measurement,setting,value
"C=C(C)[C@@H]1CCC(C)=C[C@H]1c1c(O)cc(CCC)cc1O [CBDV, cannabidivarin]",Stability of Plant-Derived Cannabinoid Compounds in AB Red,"stored at 8° C., 0 days",0.200 µg/mL
same,Stability of Plant-Derived Cannabinoid Compounds in AB Red,"stored at 8° C., 1 days",0.194 µg/mL
same,Stability of Plant-Derived Cannabinoid Compounds in AB Red,"stored at 8° C., 2 days",0.197 µg/mL
same,Stability of Plant-Derived Cannabinoid Compounds in AB Red,"stored at 8° C., 3 days",0.199 µg/mL
same,Stability of Plant-Derived Cannabinoid Compounds in AB Red,"stored at 8° C., 5 days",0.198 µg/mL
same,Stability of Plant-Derived Cannabinoid Compounds in AB Red,"stored at 8° C., 8 days",0.198 µg/mL
same,Stability of Plant-Derived Cannabinoid Compounds in AB Red,"stored at 8° C., 9 days",0.201 µg/mL
same,Stability of Plant-Derived Cannabinoid Compounds in AB Red,"stored at 8° C., 10 days",0.194 µg/mL
same,Stability of Plant-Derived Cannabinoid Compounds in AB Red,"stored at 8° C., 11 days",0.195 µg/mL
same,Stability of Plant-Derived Cannabinoid Compounds in AB Red,"stored at 8° C., 12 days",0.198 µg/mL
same,Stability of Plant-Derived Cannabinoid Compounds in AB Red,"stored at 8° C., 15 days",0.194 µg/mL
same,Stability of Plant-Derived Cannabinoid Compounds in AB Red,"stored at 8° C., 16 days",0.195 µg/mL
same,Stability of Plant-Derived Cannabinoid Compounds in AB Red,"stored at 8° C., 17 days",0.195 µg/mL
same,Stability of Plant-Derived Cannabinoid Compounds in AB Red,"stored at 8° C., 18 days",0.195 µg/mL
same,Stability of Plant-Derived Cannabinoid Compounds in AB Red,"stored at 8° C., 19 days",0.199 µg/mL
same,Stability of Plant-Derived Cannabinoid Compounds in AB Red,"stored at 8° C., 22 days",0.200 µg/mL
same,Stability of Plant-Derived Cannabinoid Compounds in AB Red,"stored at 8° C., 23 days",0.194 µg/mL
same,Stability of Plant-Derived Cannabinoid Compounds in AB Red,"stored at 8° C., 24 days",0.197 µg/mL
same,Stability of Plant-Derived Cannabinoid Compounds in AB Red,"stored at 8° C., 25 days",0.199 µg/mL
same,Stability of Plant-Derived Cannabinoid Compounds in AB Red,"stored at 8° C., 26 days",0.199 µg/mL
same,Stability of Plant-Derived Cannabinoid Compounds in AB Red,"stored at 8° C., 29 days",0.197 µg/mL
same,Stability of Plant-Derived Cannabinoid Compounds in AB Red,"stored at 8° C., 30 days",0.200 µg/mL
same,Stability of Plant-Derived Cannabinoid Compounds in AB Red,"stored at 8° C., 60 days",0.199 µg/mL
same,Stability of Plant-Derived Cannabinoid Compounds in AB Red,"stored at 8° C., 90 days",0.196 µg/mL
same,Stability of Plant-Derived Cannabinoid Compounds in AB Red,"stored at 8° C., 120 days",0.193 µg/mL
same,Stability of Plant-Derived Cannabinoid Compounds in AB Red,"stored at 8° C., 150 days",0.198 µg/mL
same,Stability of Plant-Derived Cannabinoid Compounds in AB Red,"stored at 8° C., 180 days",0.192 µg/mL
same,Stability of Plant-Derived Cannabinoid Compounds in AB Red,"stored at 8° C., 210 days",0.193 µg/mL
same,Stability of Plant-Derived Cannabinoid Compounds in AB Red,"stored at 8° C., 240 days",0.192 µg/mL
same,Stability of Plant-Derived Cannabinoid Compounds in AB Red,"stored at 8° C., 270 days",0.195 µg/mL
same,Stability of Plant-Derived Cannabinoid Compounds in AB Red,"stored at 8° C., 300 days",0.193 µg/mL
same,Stability of Plant-Derived Cannabinoid Compounds in AB Red,"stored at 8° C., 330 days",0.191 µg/mL
same,Stability of Plant-Derived Cannabinoid Compounds in AB Red,"stored at 8° C., 360 days",0.193 µg/mL
same,Stability of Plant-Derived Cannabinoid Compounds in AB Red,"stored at 8° C., 390 days",0.194 µg/mL
same,Stability of Plant-Derived Cannabinoid Compounds in AB Red,"stored at 8° C., 420 days",0.193 µg/mL
same,Stability of Plant-Derived Cannabinoid Compounds in AB Red,"stored at 8° C., 450 days",0.195 µg/mL
same,Stability of Plant-Derived Cannabinoid Compounds in AB Red,"stored at 8° C., 480 days",0.190 µg/mL
same,Stability of Plant-Derived Cannabinoid Compounds in AB Red,"stored at 8° C., 510 days",0.184 µg/mL
same,Stability of Plant-Derived Cannabinoid Compounds in AB Red,"stored at 8° C., 540 days",0.185 µg/mL
same,Stability of Plant-Derived Cannabinoid Compounds in AB Red,"stored at 8° C., 570 days",0.183 µg/mL
same,Stability of Plant-Derived Cannabinoid Compounds in AB Red,"stored at 21-25° C., 0 days",0.20 µg/mL
same,Stability of Plant-Derived Cannabinoid Compounds in AB Red,"stored at 21-25° C., 1 days",0.20 µg/mL
same,Stability of Plant-Derived Cannabinoid Compounds in AB Red,"stored at 21-25° C., 2 days",0.20 µg/mL
same,Stability of Plant-Derived Cannabinoid Compounds in AB Red,"stored at 21-25° C., 3 days",0.20 µg/mL
same,Stability of Plant-Derived Cannabinoid Compounds in AB Red,"stored at 21-25° C., 5 days",0.19 µg/mL
same,Stability of Plant-Derived Cannabinoid Compounds in AB Red,"stored at 21-25° C., 8 days",0.20 µg/mL
same,Stability of Plant-Derived Cannabinoid Compounds in AB Red,"stored at 21-25° C., 9 days",0.20 µg/mL
same,Stability of Plant-Derived Cannabinoid Compounds in AB Red,"stored at 21-25° C., 10 days",0.20 µg/mL
same,Stability of Plant-Derived Cannabinoid Compounds in AB Red,"stored at 21-25° C., 11 days",0.20 µg/mL
same,Stability of Plant-Derived Cannabinoid Compounds in AB Red,"stored at 21-25° C., 12 days",0.20 µg/mL
same,Stability of Plant-Derived Cannabinoid Compounds in AB Red,"stored at 21-25° C., 15 days",0.20 µg/mL
same,Stability of Plant-Derived Cannabinoid Compounds in AB Red,"stored at 21-25° C., 16 days",0.19 µg/mL
same,Stability of Plant-Derived Cannabinoid Compounds in AB Red,"stored at 21-25° C., 17 days",0.20 µg/mL
same,Stability of Plant-Derived Cannabinoid Compounds in AB Red,"stored at 21-25° C., 18 days",0.20 µg/mL
same,Stability of Plant-Derived Cannabinoid Compounds in AB Red,"stored at 21-25° C., 19 days",0.19 µg/mL
same,Stability of Plant-Derived Cannabinoid Compounds in AB Red,"stored at 21-25° C., 22 days",0.20 µg/mL
same,Stability of Plant-Derived Cannabinoid Compounds in AB Red,"stored at 21-25° C., 23 days",0.19 µg/mL
same,Stability of Plant-Derived Cannabinoid Compounds in AB Red,"stored at 21-25° C., 24 days",0.19 µg/mL
same,Stability of Plant-Derived Cannabinoid Compounds in AB Red,"stored at 21-25° C., 25 days",0.19 µg/mL
same,Stability of Plant-Derived Cannabinoid Compounds in AB Red,"stored at 21-25° C., 26 days",0.19 µg/mL
same,Stability of Plant-Derived Cannabinoid Compounds in AB Red,"stored at 21-25° C., 29 days",0.19 µg/mL
same,Stability of Plant-Derived Cannabinoid Compounds in AB Red,"stored at 21-25° C., 30 days",0.20 µg/mL
same,Stability of Plant-Derived Cannabinoid Compounds in AB Red,"stored at 21-25° C., 60 days",0.20 µg/mL
same,Stability of Plant-Derived Cannabinoid Compounds in AB Red,"stored at 21-25° C., 90 days",0.19 µg/mL
same,Stability of Plant-Derived Cannabinoid Compounds in AB Red,"stored at 21-25° C., 120 days",0.19 µg/mL
same,Stability of Plant-Derived Cannabinoid Compounds in AB Red,"stored at 21-25° C., 150 days",0.20 µg/mL
same,Stability of Plant-Derived Cannabinoid Compounds in AB Red,"stored at 21-25° C., 180 days",0.20 µg/mL
same,Stability of Plant-Derived Cannabinoid Compounds in AB Red,"stored at 21-25° C., 210 days",0.19 µg/mL
same,Stability of Plant-Derived Cannabinoid Compounds in AB Red,"stored at 21-25° C., 240 days",0.20 µg/mL
same,Stability of Plant-Derived Cannabinoid Compounds in AB Red,"stored at 21-25° C., 270 days",0.20 µg/mL
same,Stability of Plant-Derived Cannabinoid Compounds in AB Red,"stored at 21-25° C., 300 days",0.19 µg/mL
same,Stability of Plant-Derived Cannabinoid Compounds in AB Red,"stored at 21-25° C., 330 days",0.19 µg/mL
same,Stability of Plant-Derived Cannabinoid Compounds in AB Red,"stored at 21-25° C., 360 days",0.19 µg/mL
same,Stability of Plant-Derived Cannabinoid Compounds in AB Red,"stored at 21-25° C., 390 days",0.19 µg/mL
same,Stability of Plant-Derived Cannabinoid Compounds in AB Red,"stored at 21-25° C., 420 days",0.19 µg/mL
same,Stability of Plant-Derived Cannabinoid Compounds in AB Red,"stored at 21-25° C., 450 days",0.19 µg/mL
same,Stability of Plant-Derived Cannabinoid Compounds in AB Red,"stored at 21-25° C., 480 days",0.19 µg/mL
same,Stability of Plant-Derived Cannabinoid Compounds in AB Red,"stored at 21-25° C., 510 days",0.19 µg/mL
same,Stability of Plant-Derived Cannabinoid Compounds in AB Red,"stored at 21-25° C., 540 days",0.19 µg/mL
same,Stability of Plant-Derived Cannabinoid Compounds in AB Red,"stored at 21-25° C., 570 days",0.18 µg/mL
